Measurements as given in US6585991B1, “Termite bait matrix” (The United States of America as represented by the …, priority 1999, dated 2003).

Columns and labels:
[1] = test system: termite workers and soldiers; test: Non-choice tests of antibiotics and a fungus inhibitor in bait matrix; type: in vivo; settings: 100 ppm in bait matrix; after three weeks of exposure
Description: Non-choice tests using five different antibiotics (streptomycin sulfate, rifampicin, albendazole, neomycin sulfate, and antimycotic) and a fungus inhibitor (sorbic acid) were conducted at four different concentrations (100, 250, 500, and 1000 ppm). Individual chemicals were mixed with the bait matrix of Example 3 at each concentration and 10 g samples of each were transferred to sterile plastic Petri dishes and exposed to groups of 20 termite workers and two soldiers. Five repetitions per treatment were done. The dishes were kept in a Percival incubator under dark conditions at 27±1° C. and 80% relative humidity. A control containing no antibiotic or fungus inhibitor was prepared and kept under the same conditions as the treatments. Time required to reach 100% mortality was recorded.

termite = settings: 125 ppm hexaflumuron in a matrix composed of spruce sawdust; cited from earlier work
[2] = test system: Formosan subterranean termite colony; test: Pair choice test, yellow pine versus bait matrix mixed with hexaflumuron; type: in vivo, Coptotermes formosanus; settings: 50 ppm hexaflumuron in bait matrix; period of 10 weeks; colony of 1500
Description: To determine the acceptance by the Formosan subterranean termite of the bait matrix of Example 3 with toxic chemicals added, a pair choice test between a 25 g piece of yellow pine and an equivalent amount of bait matrix mixed with 50-ppm hexaflumuron was performed. Both pine and bait matrix were exposed to a Formosan termite colony composed of 1500 soldiers, workers, and nymphs, housed in a plastic Sterilite container containing 2L topsoil:sand (1:1) at 40% relative humidity. The treatment box was maintained under dark conditions at 26±3° C. A control, 12″ yellow pine wood stakes without hexaflumuron, was prepared and kept at the same conditions as the treatment.

CCCSc1ccc2nc(NC(=O)OC)[nH]c2c1 [albendazole]
Mortality [1]: 40%

neomycin sulfate
Mortality [1]: 40%

O=C(NC(=O)c1c(F)cccc1F)Nc1cc(Cl)c(OC(F)(F)C(F)F)c(Cl)c1 [hexaflumuron]
Mortality compared with 50 ppm in bait matrix (100% in 10 weeks) (termite): equivalent
Mortality [2]: 100%

C/C=C/C=C/C(=O)O [sorbic acid]
Mortality [1]: 33%
